Measurements as given in patent US9045445B2, “Glycine transporter-1 inhibitors, methods of making them, and uses thereof” (Albany Molecular Research, Inc., priority 2010, dated 2015).
Counter-ions that a name gives are not always drawn.

Molecular target: T1, glycine transporter-1 (GlyT-1) (Homo sapiens, UniProt P48067)
T1 construct: JAR cells (ATCC#HTB-144), which endogenously express GlyT-1; host or cells: JAR human choriocarcinoma cells
T1 sequence (P48067 1-706): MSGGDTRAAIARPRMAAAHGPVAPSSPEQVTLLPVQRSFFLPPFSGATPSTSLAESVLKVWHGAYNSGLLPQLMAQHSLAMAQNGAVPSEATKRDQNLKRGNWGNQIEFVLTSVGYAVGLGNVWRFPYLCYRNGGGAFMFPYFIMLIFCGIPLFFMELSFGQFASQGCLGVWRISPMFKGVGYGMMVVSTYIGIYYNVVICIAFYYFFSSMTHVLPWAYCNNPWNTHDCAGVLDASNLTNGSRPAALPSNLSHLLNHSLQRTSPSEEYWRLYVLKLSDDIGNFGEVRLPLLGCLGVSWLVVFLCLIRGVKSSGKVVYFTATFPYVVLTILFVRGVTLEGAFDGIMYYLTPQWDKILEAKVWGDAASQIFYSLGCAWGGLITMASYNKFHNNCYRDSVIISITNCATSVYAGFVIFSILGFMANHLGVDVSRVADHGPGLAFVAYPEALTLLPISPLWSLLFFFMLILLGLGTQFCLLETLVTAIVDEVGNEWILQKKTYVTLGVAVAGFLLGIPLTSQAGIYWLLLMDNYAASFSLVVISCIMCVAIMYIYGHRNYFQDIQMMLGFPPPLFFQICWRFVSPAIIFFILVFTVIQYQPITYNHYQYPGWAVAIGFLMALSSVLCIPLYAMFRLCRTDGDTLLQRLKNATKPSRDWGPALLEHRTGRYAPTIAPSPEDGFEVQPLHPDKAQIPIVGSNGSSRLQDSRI
Experiment: [14C]glycine uptake assay in JAR cells endogenously expressing GlyT-1 (scintillation proximity)
Format: cell-based
Settings: JAR cells, [14C]glycine 5 μM, 3 hour incubation; read-out: GlyT-1 IC50
Method: The inhibitory activity of compounds of the invention against the glycine transporter-1 (GlyT-1) can be determined by the following scintillation proximity assay. The potency of each compound was assessed in inhibiting the uptake of radiolabeled glycine ([^14C]glycine) using the human choriocarcinoma cell line, JAR cells (ATCC#HTB-144), which endogenously express GlyT-1. In brief, 50,000 JARS cells were plated per well of tissue culture treated 96-well Cytostar-T plate (PerkinElmer) in RPMI media supplemented with 10% heat inactivated FBS and allowed to attach overnight at 37° C. and 5% CO2. Compounds were serially diluted 3-fold in DMSO generating a nine (9) data point response curve for each compound. Two replicates were performed per determination. The compounds were then diluted into Uptake Buffer (10 mM Hepes, 120 mM NaCl, 2 mM KCl, 1 mM CaCl2 and 1 mM MgCl2, 5 mM Alanine, pH 7.4) with a final DMSO concentration of 0.75% (v/v). Following the overnight incubation, the media was replaced with Uptake Buffer in the presence or absence of diluted compound and pre-incubated at room temperature for 10 minutes prior to the addition of [^14C]glycine at a final concentration of 5 μM. Following a 3 hour incubation period at 37° C. and 5% CO2, the plates were sealed and placed at room temperature in the dark for 15 minutes prior to quantification of incorporated radioactivity using a MicroBeta Trilux scintillation plate reader (PerkinElmer). Data were fit into a four-parameter model to determine the inhibitor concentration at half-maximal response (IC50). The assay window was established by control wells incubated with [^14C]glycine in the presence or absence of 10 mM non-labeled glycine. A dose response curve for a synthesized reference standard was generated on every plate as a positive control.

Compound	IC50 [nM]
CCCS(=O)(=O)N1CCN(C2(CNC(=O)c3ccccc3-c3ccccc3)CCCCC2)CC1 [compound 34, N-((1-(4-(Propylsulfonyl)piperazin-1-yl)cyclohexyl)methyl) biphenyl-2-carboxamide Hydrochloride]	646
CCS(=O)(=O)N1CCN(C2(CNC(=O)c3ccc(C(C)(F)F)cc3Cl)CCC(F)(F)CC2)CC1 [compound 205, 2-Chloro-4-(1,1-difluoroethyl)-N-((1-(4-(ethylsulfonyl)piperazin-1-yl)-4,4-difluorocyclohexyl)methyl) benzamide Hydrochloride]	187
CCS(=O)(=O)N1CCN(C2(CNC(=O)c3c(Cl)ccc(C(F)(F)F)c3Cl)CCC(F)(F)CC2)CC1 [compound 215, 2,6-Dichloro-N-((1-(4-(ethylsulfonyl)piperazin-1-yl)-4,4-difluorocyclohexyl)methyl)-3-(trifluoromethyl) benzamide Hydrochloride]	2460
CN(C)S(=O)(=O)N1CCN(C2(CNC(=O)c3ccc(C(F)(F)F)cc3Cl)CCC(F)(F)CC2)CC1 [compound 273, 2-Chloro-N-((1-(4-(N,N-dimethylsulfamoyl)piperazin-1-yl)-4,4-difluorocyclohexyl)methyl)-4-(trifluoromethyl)benzamide Hydrochloride]	350
CCCS(=O)(=O)N1CCN(C2(C(C)NC(=O)c3c(F)cccc3F)CCC(F)(F)CC2)CC1 (stereo not drawn) [compound 197, N-(1-(4,4-Difluoro-1-(4-(propylsulfonyl)piperazin-1-yl)cyclohexyl)ethyl)-2,6-difluorobenzamide Hydrochloride]	304
CCCS(=O)(=O)N1CCN(C2(CNC(=O)c3ccc(F)cc3F)CCC(F)(F)CC2)CC1 [compound 140, N-((4,4-Difluoro-1-(4-(propylsulfonyl)piperazin-1-yl)cyclohexyl)methyl)-2,4-difluorobenzamide Hydrochloride]	195
CCCS(=O)(=O)N1CCN(C2(CNC(=O)c3ccc(Cl)c(Cl)c3)CCCCC2)CC1 [compound 26, 3,4-Dichloro-N-((1-(4-(propylsulfonyl)piperazin-1-yl)cyclohexyl)methyl) benzamide Hydrochloride]	245
CCCS(=O)(=O)N1CCN(C2(CNC(=O)c3cc(C(F)(F)F)ccc3C(F)(F)F)CCC(F)(F)CC2)CC1 [compound 248, N-((4,4-Difluoro-1-(4-(propylsulfonyl)piperazin-1-yl)cyclohexyl)methyl)-2,5-bis(trifluoromethyl) benzamide Hydrochloride]	159
CCCS(=O)(=O)N1CCN(C2(CNC(=O)c3c(Cl)ccc(C(F)(F)F)c3Cl)CCC(F)(F)CC2)CC1 [compound 265, 2,6-Dichloro-N-((4,4-difluoro-1-(4-(propylsulfonyl)piperazin-1-yl)cyclohexyl)methyl)-3-(trifluoromethyl) benzamide Hydrochloride]	228
CCS(=O)(=O)N1CCN(C2(CNC(=O)c3c(F)ccc(C(F)(F)F)c3F)CCC(F)(F)CC2)CC1 [compound 211, N-((1-(4-(Ethylsulfonyl)piperazin-1-yl)-4,4-difluorocyclohexyl)methyl)-2,6-difluoro-3-(trifluoromethyl) benzamide Hydrochloride]	2780

Now those with a lower IC50, led by results:

IC50 [nM]	Compound
86	CCS(=O)(=O)N1CCN(C2(CNC(=O)c3ccc(C(F)(F)F)cc3C(F)(F)F)CCC(F)(F)CC2)C(C)C1 (racemic) [compound 218, (±)-N-((1-(4-(Ethylsulfonyl)-2-methylpiperazin-1-yl)-4,4-difluorocyclohexyl)methyl)-2,4-bis(trifluoromethyl) benzamide Hydrochloride]
61	CC(=O)CS(=O)(=O)N1CCN(C2(CNC(=O)c3ccc(C(F)(F)F)cc3Cl)CCC(F)(F)CC2)CC1 [compound 280, 2-Chloro-N-((4,4-difluoro-1-(4-(2-oxopropylsulfonyl)piper-azin-1-yl)cyclohexyl)methyl)-4-(trifluoromethyl) benzamide Hydrochloride]
61	CCCS(=O)(=O)N1CCN(C2(CNC(=O)c3ccc(C(F)(F)F)cc3F)CCC(F)(F)CC2)CC1 [compound 150, N-((4,4-Difluoro-1-(4-(propylsulfonyl)piperazin-1-yl)cyclohexyl)methyl)-2-fluoro-4-(trifluoromethyl)benzamide Hydrochloride]
57	CCCS(=O)(=O)N1CCN(C2(CNC(=O)c3cc(Cl)ccc3Cl)CCC(F)(F)CC2)CC1 [compound 243, 2,5-Dichloro-N-((4,4-difluoro-1-(4-(propylsulfonyl)piperazin-1-yl)cyclohexyl)methyl) benzamide Hydrochloride]
43	CCCS(=O)(=O)N1CCN(C2(CNC(=O)c3c(F)cccc3Cl)CCC(F)(F)CC2)CC1 [compound 156, 2-Chloro-N-((4,4-difluoro-1-(4-(propylsulfonyl)piperazin-1-yl)cyclohexyl)methyl)-6-fluorobenzamide Hydrochloride]
34	COc1ccccc1C(=O)NCC1(N2CCN(S(=O)(=O)c3cn(C)cn3)CC2)CCC(F)(F)CC1 [compound 177, N-((4,4-Difluoro-1-(4-(1-methyl-1H-imidazol-4-ylsulfonyl)piperazin-1-yl)cyclohexyl)methyl)-2-methoxybenzamide Hydrochloride]
24	CCCS(=O)(=O)N1CCN(C2(CNC(=O)c3c(F)cccc3OC(F)F)CCC(F)(F)CC2)CC1 [compound 250, N-((4,4-Difluoro-1-(4-(propylsulfonyl)piperazin-1-yl)cyclohexyl)methyl)-2-(difluoromethoxy)-6-fluorobenzamide Hydrochloride]
7	Cn1cc(S(=O)(=O)N2CCN(C3(CNC(=O)c4ccc(C(F)(F)F)cc4C(F)(F)F)CCCC3)CC2)nn1 [compound 275, N-((1-(4-(1-Methyl-1H-1,2,3-triazol-4-ylsulfonyl)piperazin-1-yl)cyclopentyl)methyl)-2,4-bis(trifluoromethyl) benzamide Hydrochloride]
3	N-((4,4-Difluoro-1-(1-(1- methyl-1H-1,2,3-triazol-4- ylsulfonyl)piperidin-4- yl)cyclohexyl)methyl)-2,4- bis(trifluoromethyl) benzamide [compound 274]
2	COc1cccc(Cl)c1C(=O)NCC1(N2CCN(S(=O)(=O)c3cn(C)cn3)CC2)CCC(F)(F)CC1 [compound 173, 2-Chloro-N-((4,4-Difluoro-1-(4-(1-methyl-1H-imidazol-4-ylsulfonyl)piperazin-1-yl)cyclohexyl)methyl)-6-methoxybenzamide Hydrochloride]
1	Cn1cc(S(=O)(=O)N2CCN(C3(CNC(=O)c4c(Cl)cccc4Cl)CCC(F)(F)CC3)CC2)nn1 [compound 190, 2,6-Dichloro-N-((4,4-difluoro-1-(4-(1-methyl-1H-l,2,3-triazol-4-ylsulfonyl)piperazin-1-yl)cyclohexyl)methyl) benzamide Hydrochloride]
1	Cn1cnc(S(=O)(=O)N2CCN(C3(CNC(=O)c4c(Cl)cccc4OC(F)(F)F)CCC(F)(F)CC3)CC2)c1 [compound 187, 2-Chloro-N-((4,4-difluoro-1-(4-(1-methyl-1H-imidazol-4-ylsulfonyl)piperazin-1-yl)cyclohexyl)methyl)-6-(trifluoromethoxy) benzamide Hydrochloride]
1	Cn1cc(S(=O)(=O)N2CCN(C3(CNC(=O)c4c(F)cc(Cl)cc4Cl)CCC(F)(F)CC3)CC2)nn1 [compound 241, 2,4-Dichloro-N-((4,4-difluoro-1-(4-(1-methyl-1H-1,2,3-triazol-4-ylsulfonyl)piperazin-1-yl)cyclohexyl)methyl)-6-fluorobenzamide Hydrochloride]
1	Cn1cc(S(=O)(=O)N2CCN(C3(CNC(=O)c4c(Cl)cccc4OC(F)(F)F)CCC(F)(F)CC3)CC2)nn1 [compound 191, 2-Chloro-N-((4,4-difluoro-1-(4-(1-methyl-1H-1,2,3-triazol-4-ylsulfonyl)piperazin-1-yl)cyclohexyl)methyl)-6-(trifluoromethoxy) benzamide Hydrochloride]
